According to patent US12685312B2, “Sulfonamide apyrase inhibitors” (Texas Crop Science, Inc., priority 2022, dated 2026):

These compounds were tested on apyrase (assay: Screen for apyrase inhibitors (Method 1, in vitro phosphate-release absorbance assay)). Details: inhibitor conc at 1 mM stock, 1 hr room temperature, absorbance 630 nm; rounded average of two assay results.
Type: biochemical
Outline: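 Phosphate-release colorimetric assay (Windsor method) in 60 mM Hepes, 3 mM MgCl2, 3 mM CaCl2, 3 mM ATP, pH 6.5, with compound or DMSO control added. Released phosphate developed with ammonium molybdate and ascorbic acid/TCA, then stopped with citrate/acetic acid.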

Going from `Cc1ccc(C(=O)Nc2cccc(S(=O)(=O)Nc3cccc(C(F)(F)F)c3)c2)cn1` [I-740, 6-methyl-N-(3-(N-(3-(trifluoromethyl)phenyl)sulfamoyl)phenyl)nico tinamide] to `O=C(Nc1cccc(S(=O)(=O)Nc2cccc(C(F)(F)F)c2)c1)c1cccnc1` [I-758, N-(3-(N-(3-(trifluoromethyl)phenyl)sulfamoyl)phenyl) nicotinamide], the “% Inhibition of Apyrase” value falls from 51% to 28%.

Going from `O=C(Nc1cccc(S(=O)(=O)Nc2cccc(Cl)c2)c1)c1ccccn1` [I-741, N-(3-(N-(3-chlorophenyl)sulfamoyl)phenyl)picolinamide] to `O=C(Nc1cccc(S(=O)(=O)Nc2ccccc2Cl)c1)c1ccccn1` [I-745, N-(3-(N-(2-chlorophenyl)sulfamoyl)phenyl)picolinamide], the “% Inhibition of Apyrase” value falls from 50% to 46%.

Going from `COc1ccc(NS(=O)(=O)c2cccc(NC(=O)c3cc4c(s3)CCC4)c2)cc1` [I-742, N-(3-(N-(4-methoxyphenyl)sulfamoyl)phenyl)-5,6-dihydro-4H-cyclopenta[b]thiophene-2-carboxamide] to `COc1ccc(NS(=O)(=O)c2cccc(NC(=O)c3ccc(Cl)s3)c2)cc1` [I-749, 5-chloro-N-(3-(N-(4-methoxyphenyl)sulfamoyl)phenyl)thiophene-2-carboxamide], the “% Inhibition of Apyrase” value falls from 50% to 41%.

Compared with `CSc1ncccc1C(=O)Nc1cccc(S(=O)(=O)N(C)c2ccccc2)c1` [I-743, N-(3-(N-methyl-N-phenylsulfamoyl)phenyl)-2-(methylthio)nicotinamide], `CN(c1ccccc1)S(=O)(=O)c1cccc(NC(=O)c2ccncc2)c1` [I-768, N-(3-(N-methyl-N-phenylsulfamoyl)phenyl)isonicotinamide] is lower in “% Inhibition of Apyrase” value: 49% for the first, 7% for the second.

Compared with `Cc1cnc(C(=O)Nc2cccc(S(=O)(=O)Nc3cccc(Cl)c3)c2)cn1` [I-744, N-(3-(N-(3-chlorophenyl)sulfamoyl)phenyl)-5-methylpyrazine-2-carboxamide], `Cc1cnc(C(=O)Nc2cccc(S(=O)(=O)Nc3cccc(C(F)(F)F)c3)c2)cn1` [I-769, 5-methyl-N-(3-(N-(3-(trifluoromethyl)phenyl)sulfamoyl)phenyl) pyrazine-2-carboxamide] is lower in “% Inhibition of Apyrase” value: 49% for the first, 7% for the second.

Compared with `O=C(Nc1cccc(S(=O)(=O)Nc2ccccc2Cl)c1)c1ccc(Cl)nc1` [I-746, 6-chloro-N-(3-(N-(2-chlorophenyl)sulfamoyl)phenyl)nicotinamide], `O=C(Nc1cccc(S(=O)(=O)Nc2ccccc2Cl)c1)c1cnc(Cl)c(Cl)c1` [I-756, 5,6-dichloro-N-(3-(N-(2-chlorophenyl)sulfamoyl)phenyl)nicotinamide] is lower in “% Inhibition of Apyrase” value: 45% for the first, 30% for the second.

Compared with `Cc1occc1C(=O)Nc1cccc(S(=O)(=O)Nc2cccc(C(F)(F)F)c2)c1` [I-747, 2-methyl-N-(3-(N-(3-(trifluoromethyl)phenyl)sulfamoyl)phenyl) furan-3-carboxamide], `O=C(Nc1cccc(S(=O)(=O)Nc2cccc(C(F)(F)F)c2)c1)c1ccco1` [I-759, N-(3-(N-(3-(trifluoromethyl)phenyl)sulfamoyl)phenyl) furan-2-carboxamide] is lower in “% Inhibition of Apyrase” value: 44% for the first, 28% for the second.

Going from `Cc1cc(C(=O)Nc2cccc(S(=O)(=O)N(C)c3ccccc3)c2)on1` [I-748, 3-methyl-N-(3-(N-methyl-N-phenylsulfamoyl)phenyl)isoxazole-5-carboxamide] to `Cc1cnc(C(=O)Nc2cccc(S(=O)(=O)N(C)c3ccccc3)c2)cn1` [I-767, 5-methyl-N-(3-(N-methyl-N-phenylsulfamoyl)phenyl)pyrazine-2-carboxamide], the “% Inhibition of Apyrase” value falls from 42% to 12%.

First: Cn1nc(C(=O)Nc2cccc(S(=O)(=O)Nc3cccc(C(F)(F)F)c3)c2)c2ccccc2c1=O [I-750, 3-methyl-4-oxo-N-(3-(N-(3-(trifluoromethyl)phenyl)sulfamoyl)phenyl)-3,4-dihydrophthalazine-1-carboxamide]
Second: O=C(Nc1cccc(S(=O)(=O)Nc2cccc(C(F)(F)F)c2)c1)c1ccoc1 [I-762, N-(3-(N-(3-(trifluoromethyl)phenyl)sulfamoyl)phenyl) furan-3-carboxamide]
The “% Inhibition of Apyrase” value of the first is higher: 41% for the first, 16% for the second.

Compared with `CCOc1ccc(NS(=O)(=O)c2cccc(NC(=O)c3cccnc3)c2)cc1Br` [I-751, N-(3-(N-(3-bromo-4-ethoxyphenyl)sulfamoyl)phenyl)nicotinamide], `CCOc1ccc(NS(=O)(=O)c2cccc(NC(=O)c3ccncc3)c2)cc1Br` [I-765, N-(3-(N-(3-bromo-4-ethoxyphenyl)sulfamoyl)phenyl) isonicotinamide] is lower in “% Inhibition of Apyrase” value: 41% for the first, 15% for the second.

Compared with `O=C(Nc1cccc(S(=O)(=O)Nc2ccccc2Cl)c1)c1cnccn1` [I-752, N-(3-(N-(2-chlorophenyl)sulfamoyl)phenyl)pyrazine-2-carboxamide], `O=C(Nc1cccc(S(=O)(=O)Nc2ccc(Cl)cc2)c1)c1cnccn1` [I-775, N-(3-(N-(4-chlorophenyl)sulfamoyl)phenyl)pyrazine-2-carboxamide] is lower in “% Inhibition of Apyrase” value: 40% for the first, 3% for the second.

First: COc1cc(C(=O)Nc2cccc(S(=O)(=O)N(C)c3ccccc3)c2)ncn1 [I-753, 6-methoxy-N-(3-(N-methyl-N-phenylsulfamoyl)phenyl)pyrimidine-4-carboxamide]
Second: CN(c1ccccc1)S(=O)(=O)c1cccc(NC(=O)c2ccc(=O)[nH]n2)c1 [I-755, N-(3-(N-methyl-N-phenylsulfamoyl)phenyl)-6-oxo-1,6-dihydropyridazine-3-carboxamide]
The “% Inhibition of Apyrase” value of the first is higher: 37% for the first, 33% for the second.

Compared with `CN(c1ccccc1)S(=O)(=O)c1cccc(NC(=O)c2ccc3ccccc3n2)c1` [I-754, N-(3-(N-methyl-N-phenylsulfamoyl)phenyl)quinoline-2-carboxamide], `CN(c1ccccc1)S(=O)(=O)c1cccc(NC(=O)c2nn(C)c(=O)c3ccccc23)c1` [I-763, 3-methyl-N-(3-(N-methyl-N-phenylsulfamoyl)phenyl)-4-oxo-3,4-dihydrophthalazine-1-carboxamide] is lower in “% Inhibition of Apyrase” value: 36% for the first, 15% for the second.

Compared with `CCOc1ncccc1C(=O)Nc1cccc(S(=O)(=O)Nc2ccccc2OC)c1` [I-757, 2-ethoxy-N-(3-(N-(2-methoxyphenyl)sulfamoyl)phenyl) nicotinamide], `COc1ccccc1NS(=O)(=O)c1cccc(NC(=O)c2cccnc2OC)c1` [I-770, 2-methoxy-N-(3-(N-(2-methoxyphenyl)sulfamoyl)phenyl) nicotinamide] is lower in “% Inhibition of Apyrase” value: 29% for the first, 6% for the second.

Going from `COc1ccc(C(=O)Nc2cccc(S(=O)(=O)Nc3nccs3)c2)cc1[N+](=O)[O-]` [I-760, 4-methoxy-3-nitro-N-(3-(N-(thiazol-2-yl)sulfamoyl)phenyl)benzamide] to `COc1ccccc1NS(=O)(=O)c1cccc(NC(=O)c2cncc(Br)c2)c1` [I-766, 5-bromo-N-(3-(N-(2-methoxyphenyl)sulfamoyl)phenyl) nicotinamide], the “% Inhibition of Apyrase” value falls from 26% to 14%.

First: COc1ccccc1NS(=O)(=O)c1cccc(NC(=O)c2ccc(C)s2)c1 [I-761, N-(3-(N-(2-methoxyphenyl)sulfamoyl)phenyl)-5-methylthiophene-2-carboxamide]
Second: COc1ccccc1NS(=O)(=O)c1cccc(NC(=O)c2ccc(=O)n(C)n2)c1 [I-774, N-(3-(N-(2-methoxyphenyl)sulfamoyl)phenyl)-1-methyl-6-oxo-1,6-dihydropyridazine-3-carboxamide]
The “% Inhibition of Apyrase” value of the first is higher: 17% for the first, 3% for the second.

Compared with `O=C(Nc1cccc(S(=O)(=O)Nc2ccc(Cl)cc2)c1)c1ccc(Cl)nc1` [I-764, 6-chloro-N-(3-(N-(4-chlorophenyl)sulfamoyl)phenyl)nicotinamide], `COc1ccc(NS(=O)(=O)c2cccc(NC(=O)c3cccs3)c2)cc1` [I-771, N-(3-(N-(4-methoxyphenyl)sulfamoyl)phenyl)thiophene-2-carboxamide] is lower in “% Inhibition of Apyrase” value: 15% for the first, 6% for the second.

Compared with `O=C(Nc1cccc(S(=O)(=O)Nc2ccc(SC(F)F)cc2)c1)c1ccco1` [I-772, N-(3-(N-(4-((difluoromethyl)thio)phenyl)sulfamoyl)phenyl) furan-2-carboxamide], `O=C(Nc1cccc(S(=O)(=O)Nc2ccccc2F)c1)c1cccs1` [I-776, N-(3-(N-(2-fluorophenyl)sulfamoyl)phenyl)thiophene-2-carboxamide] is lower in “% Inhibition of Apyrase” value: 6% for the first, 1% for the second.

First: CN(c1ccccc1)S(=O)(=O)c1cccc(NC(=O)c2cc(C3CC3)on2)c1 [I-773, 5-cyclopropyl-N-(3-(N-methyl-N-phenylsulfamoyl)phenyl)isoxazole-3-carboxamide]
Second: CN(c1ccccc1)S(=O)(=O)c1ccccc1C(=O)Nc1ccc2c(c1)OCO2 [I-809, N-(benzo[d][1,3]dioxol-5-yl)-2-(N-methyl-N-phenylsulfamoyl)benzamide]
The “% Inhibition of Apyrase” value of the first is lower: 3% for the first, 77% for the second.

Compared with `CN(c1ccccc1)S(=O)(=O)c1ccccc1C(=O)Nc1ccc(Cl)cc1F` [I-808, N-(4-chloro-2-fluorophenyl)-2-(N-methyl-N-phenylsulfamoyl)benzamide], `CN(c1ccccc1)S(=O)(=O)c1ccccc1C(=O)Nc1cccc(C(N)=O)c1` [I-814, N-(3-carbamoylphenyl)-2-(N-methyl-N-phenylsulfamoyl)benzamide] is lower in “% Inhibition of Apyrase” value: 80% for the first, 39% for the second.

Compared with `CN(c1ccccc1)S(=O)(=O)c1ccccc1C(=O)N1CCCc2ccccc21` [I-810, N-methyl-N-phenyl-2-(1,2,3,4-tetrahydroquinoline-1-carbonyl)benzenesulfonamide], `CN(c1ccccc1)S(=O)(=O)c1ccccc1C(=O)Nc1ccc(C#N)cc1` [I-811, N-(4-cyanophenyl)-2-(N-methyl-N-phenylsulfamoyl)benzamide] is lower in “% Inhibition of Apyrase” value: 75% for the first, 74% for the second.

First: O=C1Cc2cccc(NS(=O)(=O)c3ccc(Br)cc3)c2N1 [I-812, 4-bromo-N-(2-oxoindolin-7-yl)benzenesulfonamide]
Second: O=C(Nc1cc(Cl)ccc1NS(=O)(=O)c1ccccc1F)c1ccc2c(c1)OCO2 [I-813, N-(5-chloro-2-((2-fluorophenyl)sulfonamido)phenyl)benzo[d][1,3] dioxole-5-carboxamide]
The “% Inhibition of Apyrase” value of the first is higher: 54% for the first, 44% for the second.
